Laboratory results reported in patent US7767671B2, “3-Quinolinecarbonitrile protein kinase inhibitors” (Wyeth, priority 2004, dated 2010).

Tests used:
[1] = system: Rat2 fibroblasts transformed with v-Src/Hu c-Src fusion gene; assay: Anchorage independent Src-transformed fibroblast proliferation; type: cell-based; conditions: Rattus norvegicus, 120 h, suspension growth, MTS on Day 5, read-out: Src TF prolif IC50
Procedure: Anchorage Independent Src-transformed Fibroblast Proliferation Test Procedure: Rat2 fibroblasts stably transformed with a plasmid containing a CMV promotor controlled v-Src/Hu c-Src fusion gene in which the catalytic domain of human c-Src is inserted in place of the v-Src catalytic domain in the v-Src gene are used for the measurement of src dependent suspension growth. Ultra-low cluster plates (Costar #3474) are seeded with 10,000 cells per well on Day 1.

p60c-src = target: T1, p60c-src (Homo sapiens, UniProt P12931); assay: Src kinase test procedure (ELISA); type: biochemical; conditions: cdc2 substrate peptide, (a) = average of two runs
T1 construct: purchased Upstate Biotechnologies
T1 sequence (P12931 whole entry): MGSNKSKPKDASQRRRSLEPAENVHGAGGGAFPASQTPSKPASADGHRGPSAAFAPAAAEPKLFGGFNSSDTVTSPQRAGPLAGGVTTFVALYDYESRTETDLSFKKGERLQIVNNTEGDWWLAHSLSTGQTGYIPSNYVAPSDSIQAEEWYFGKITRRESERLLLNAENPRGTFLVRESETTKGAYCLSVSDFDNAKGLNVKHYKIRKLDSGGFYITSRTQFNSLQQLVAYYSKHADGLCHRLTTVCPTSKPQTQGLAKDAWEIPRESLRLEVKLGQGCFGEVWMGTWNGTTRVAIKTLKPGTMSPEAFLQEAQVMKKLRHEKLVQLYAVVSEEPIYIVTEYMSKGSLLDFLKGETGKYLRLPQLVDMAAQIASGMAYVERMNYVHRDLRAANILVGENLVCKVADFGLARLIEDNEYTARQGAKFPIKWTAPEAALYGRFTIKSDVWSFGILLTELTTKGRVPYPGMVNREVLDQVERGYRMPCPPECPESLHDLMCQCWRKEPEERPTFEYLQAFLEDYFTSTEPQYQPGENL
Procedure: Src Kinase Test Procedure
Inhibitors of p60^c-src (partially purified preparation purchased from Upstate Biotechnologies) tyrosine kinase activity are analyzed in an Elisa format. The Boehringer Mannheim Tyrosine Kinase Assay Kit (Catalog number 1-534505) with a cdc2 substrate peptide containing Tyr15 is used for the assay. HRP-conjugated anti-phosphotyrosine is used to detect phosphorylated peptide via a color reaction. Conditions recommended by the manufacturer are employed.
Reaction conditions: Five microliter aliquots of each compound prepared fresh at the time of the assay are added as a solution in 10 mM HEPES pH 7.5, 10% DMSO to the reaction well. Thirty-five microliters of reaction mix containing Src, buffer and peptide/bovine serum albumin mix are added to the compound wells and incubated at 30° C. for 10 minutes (reaction buffer: 50 mM Tris HCl pH 7.5, 10 mM MgCl2, 0.1 mM EGTA, 0.5 mM Na3VO4). The reaction is started by addition of 10 microliters of ATP, incubated at 30° C. for 1 hour, and stopped by addition of 20 microliters of 0.5M EDTA. The reaction mixture with the phosphorylated peptide is then transferred to a streptavidin-coated microtiter plate (provided in the kit) and allowed to bind for 20 minutes. Unbound peptide and reaction mixture is decanted and the plate is washed with PBS six times. Horseradish peroxidase-conjugated phosphotyrosine antibody supplied in the kit is incubated with the plate for one hour, then decanted. The plate is again ished with PBS six times. Substrate (provided in the kit) is added and absorbance at 405 nm is measured.
Activity is determined as % inhibition as calculated by the formula: (1−Abs/Abs(max))×100=% inhibition. Where multiple concentrations of the test agent are used, an IC50 (concentration which gives 50% inhibition) could be determined.

HT-29 cells = assay: HT-29 cell proliferation on plastic (MTS); type: cell-based; conditions: Homo sapiens; HT-29 cells on plastic, MTS on day five; read-out: HT-29 prolif IC50
Procedure: Cell Proliferation Test Procedure for Inhibitors of Src Kinase
HT-29 cells: Compound effectiveness at inhibiting cell proliferation on plastic is performed in a 96-well format by plating 5000 cells per well in appropriate medium on day one, followed by compound addition on day 2 in serial two-fold dilutions. On day five, compound is washed away and medium containing MTS reagent (Promega) is added. Relative cell number is determined by reading the absorbance at 490 nm of a dye produced by an NAD-dependent cellular enzymatic reaction.

[2] = target: T2, Raf and/or Mek kinase (human c-Raf, GST-MEK1) (Homo sapiens, UniProt P04049+Q02750); assay: Raf/Mek kinase cascade assay; type: biochemical; conditions: c-Raf dependent activation of GST-MEK and GST-MAPK, phospho-MAPK ELISA; (a)/(b)/(c) = average of two/three/four runs
T2 construct: Sf9 insect cell lysate containing full length 6his-tagged recombinant human c-Raf; 6His; host or cells: Sf9 insect cells (c-Raf, used as lysate); E. coli (MEK1-GST, GST-MAPK)
T2 sequence (P04049 whole entry): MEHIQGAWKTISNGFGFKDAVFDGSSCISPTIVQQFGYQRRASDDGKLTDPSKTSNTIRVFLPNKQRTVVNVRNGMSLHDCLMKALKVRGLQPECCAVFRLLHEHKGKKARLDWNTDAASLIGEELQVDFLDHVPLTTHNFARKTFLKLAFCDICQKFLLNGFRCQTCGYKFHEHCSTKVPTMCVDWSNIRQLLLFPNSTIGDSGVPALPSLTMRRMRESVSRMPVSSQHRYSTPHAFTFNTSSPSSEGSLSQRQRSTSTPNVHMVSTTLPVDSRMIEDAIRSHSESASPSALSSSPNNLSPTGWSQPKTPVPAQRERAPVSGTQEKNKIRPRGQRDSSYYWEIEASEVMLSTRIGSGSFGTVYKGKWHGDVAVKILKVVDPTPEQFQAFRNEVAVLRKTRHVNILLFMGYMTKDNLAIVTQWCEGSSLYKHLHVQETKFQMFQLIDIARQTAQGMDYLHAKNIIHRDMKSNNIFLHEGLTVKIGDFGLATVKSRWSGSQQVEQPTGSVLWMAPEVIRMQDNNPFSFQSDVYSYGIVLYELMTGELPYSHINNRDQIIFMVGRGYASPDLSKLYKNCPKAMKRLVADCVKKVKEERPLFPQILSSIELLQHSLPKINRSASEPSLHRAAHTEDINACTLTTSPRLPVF
T2 sequence (Q02750 whole entry): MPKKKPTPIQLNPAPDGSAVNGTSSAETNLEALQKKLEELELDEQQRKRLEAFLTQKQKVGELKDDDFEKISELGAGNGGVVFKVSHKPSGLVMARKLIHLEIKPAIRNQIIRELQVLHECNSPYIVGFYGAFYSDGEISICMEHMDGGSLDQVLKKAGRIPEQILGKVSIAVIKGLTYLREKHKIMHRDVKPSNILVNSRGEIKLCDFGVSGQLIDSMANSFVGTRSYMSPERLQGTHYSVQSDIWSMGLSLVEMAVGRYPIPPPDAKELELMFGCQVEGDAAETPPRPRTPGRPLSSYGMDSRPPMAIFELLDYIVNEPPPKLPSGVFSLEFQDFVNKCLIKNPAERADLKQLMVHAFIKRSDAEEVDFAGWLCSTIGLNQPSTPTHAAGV
Procedure: Raf/Mek Kinase Cascade Assay Procedure
(Specific Activity: ˜200 U/ml). Human Non-active Mek-1-GST and human GST-MAP kinase (recombinant proteins produced in E. coli).
Stock Solutions Raf/Mek Cascade Assay:
• 1. Assay Dilution Buffer (ADB): 20 mM MOPS, pH 7.2, 25 mM β-glycerol phosphate, 5 mM EGTA, 1 mM sodium orthovanadate, 1 mM dithiothreitol; • 2. Magnesium/ATP Cocktail: 500 μM cold ATP and 75 mM magnesium chloride in ADB; • 3. Active Kinase: Human Active c-Raf: Use at 0.4 U per assay point; • 4. Non-active GST-MEK1: Use at 0.1 μg per assay point; and • 5. Non-active GST-p42 MAP Kinase: Use at 1.0 μg per assay point. Stock Solutions ELISA: • 1. TBST-Tris (50 mM, pH 7.5), NaCl (150 mM), Tween-20 (0.05%); • 2. Superblock (Pierce); • 3. Anti-GST Ab (Pharmacia); • 4. Anti-Phospho MAPK (Sigma); and • 5. Anti-Mouse Ab/Europium conjugate (Wallac). Assay Procedure: First Stage: c-Raf Dependent Activation of GST-MEK and GST-MAPK • 1. Add […] of ADB per assay (i.e. per well of a 96 well plate); • 2. Add 10 ml of 0.5 mM cold ATP and 75 mM magnesium chloride in ADB; • 3. Add 2 ml of c-Raf (0.4 U/assay), in conjunction with 1.6 ml non-active MEK1 (0.4 […]/assay); • 4. Add 4 ml of non-active GST-p42 MAP Kinase (1.0 mg/assay); • 5. Incubate for 60 minutes at 30° C. in a shaking incubator; • 6. Transfer this mixture to an anti-GST Ab coated 96 well plate (Nunc Immunosorb plates coated o/n with a-GST, then blocked with Pierce Superblock); • 7. Incubate for 60 minutes at 30° C. in a shaking incubator; • 8. Wash 3× with TBST, add Anti-Phospho MAPK (Sigma) (1:3000); • 9. Incubate for 60 minutes at 30° C. in a shaking incubator; • 10. Wash 3× with TBST, add Anti-Mouse Ab/Europium conjugate (Wallac) (1:500); • 11. Incubate for 60 minutes at 30° C. in a shaking incubator; • 12. Wash 3× with TBST, Read plates in Wallac Victor model Plate Reader; and • 13. Collect data analyze in Excel for single point and IC50 determinations.
Single point assay—% inhibition at […] (% Inhibition=1−cpd·treated sample/untreated control). IC50 determinations—done on compounds from single point assays with >80% inhibition. Typically, the Raf/Mek assay is run at compound concentrations from 10 μM to 1 nM in half log dilutions. (% inhibition is determined for each compound concentration). The results obtained measure Raf and/or Mek kinase inhibition, and for representative compounds of this invention are listed in Table 1.

Compound: COc1cc(Nc2c(C#N)cnc3cc(OCCCN4CCC(N5CCCC5)CC4)c(OC)cc23)c(Cl)cc1Cl [Example 34]
- IC50 [1]: 0.466 µM
- IC50 (p60c-src): 0.00055 µM
- IC50 (HT-29 cells): 2.6 µM
- melting point: 108 to 112 °C
- IC50 [2]: 0.25 µM

Compound: COc1cc(Nc2c(C#N)cnc3cc(OCCCN4CCC(N5CCCCC5)CC4)c(OC)cc23)c(Cl)cc1Cl [Example 35, 7-(3-[1,4′-Bipiperidin]-1′-ylpropoxy)-4-[(2,4-dichloro-5-methoxyphenyl)amino]-6-methoxy-3-quinolinecarbonitrile]
- IC50 [1]: 0.14 µM
- IC50 (p60c-src): 0.001 µM
- IC50 (HT-29 cells): 2.7 µM
- melting point: 130 to 132 °C
